Reference: article PMC9705858, “Anti-Endotoxin 9-Meric Peptide with Therapeutic Potential for the Treatment of Endotoxemia” (Journal of Microbiology and Biotechnology, 2020)
Values after ≈ are worked out from the molar mass of the structure shown. Read-outs that look alike come from different tables or passages of the source. Non-standard residues stand in square brackets, D forms with d. Residues, ends and D or L forms follow the SMILES beside them.

What was measured:
[1] = tested on: Escherichia coli (KCTC 1682); format: cell-based
From the text: (§1) The gram-negative bacterial strains Escherichia coli (KCTC 1682) and Acinetobacter baumannii (KCCM 40203) were purchased from the Korean Collection for Type Cultures (Korea) and the Korean Culture Center of Microorganisms (Korea), respectively. The MDR gram-negative strains Escherichia coli CCARM 1229, Escherichia coli CCARM 1238, Acinetobacter baumannii CCARM 12010, and Acinetobacter baumannii CCARM 12220 were obtained from the Culture Collection of Antibiotic-Resistant Microbes at Seoul Women’s University (South Korea).
(§2) The antibacterial properties of all peptides were determined by measuring the Minimum Inhibitory Concentration (MIC) as described previously. […] Two-fold serial dilutions of respective peptides were inoculated in 96-well plates in Mueller-Hinton medium, followed by the addition of bacterial suspensions (2 × 10^5 CFU/ml) at the log growth phase. The plates were incubated at 37°C for 16 h, and absorbance was read at 600 nm using a SpectraMAX microplate reader (Molecular Devices, USA).

[2] = tested on: MDR Escherichia coli CCARM 1229; format: cell-based; details: MDREC 1229; 99% growth inhibition; 2 × 10^5 CFU/ml, 37°C, 16 h, A600
From the text: as §1, §2

[3] = tested on: MDR Acinetobacter baumannii CCARM 12220; format: cell-based; details: MDRAB 12220; 99% growth inhibition; 2 × 10^5 CFU/ml, 37°C, 16 h, A600
From the text: as §1, §2

[4] = tested on: Acinetobacter baumannii (KCCM 40203); format: cell-based
From the text: as §1, §2

[5] = tested on: MDR Acinetobacter baumannii CCARM 12010; format: cell-based; details: MDRAB 12010; 99% growth inhibition; 2 × 10^5 CFU/ml, 37°C, 16 h, A600
From the text: as §1, §2

[6] = tested on: MDR Escherichia coli CCARM 1238; format: cell-based; details: MDREC 1238; 99% growth inhibition; 2 × 10^5 CFU/ml, 37°C, 16 h, A600
From the text: as §1, §2

[7] = tested on: RAW264.7 cells; assay: Cytotoxicity, WST-8 cell proliferation assay; format: cell-based, mouse; details: 24 h, mean of three experiments
Method: (§3) The capacity of peptides in the lysis of erythrocytes was analyzed using sheep red blood cells (RBCs) as described previously. Cytotoxicity was further assessed in mouse macrophage RAW264.7 cells, which were cultured in Dulbecco’s modified Eagle medium (Thermo Fischer Scientific Inc., USA) enriched with fetal bovine serum (10%) and antibiotics (penicillin/streptomycin, 100 IU/ 100 mg/L) at 37°C in a CO2 incubator. The cytotoxic effect of Pro9-3 series peptides against RAW264.7 cells was then determined using WST-8 Cell Proliferation Assay Kit (Biomax Co. Ltd., Korea). The analysis was carried out according to our previously reported method.
Fig. 1 Cytotoxicities of peptides. (A) Dose-dependent hemolytic activities in sheep red blood cell (sRBC) caused by peptides. (B) Dose-response cytotoxicities of the Pro9-3 and its analogs against RAW264.7 cells for 24 h. Melittin was used as a positive control. The values are expressed as the mean ± SEM of three independent experiments: *p < 0.05; **p < 0.01; ***p < 0.001; ns, not significant.

[8] = Limulus amebocyte lysate (LAL) assay, LPS neutralization; format: biochemical, Escherichia coli; details: 50 μM peptide, 2 ng/ml LPS, 15 min at 37°C
Method: To check the endotoxin clearance properties of peptides, LAL assay was performed according to the protocol provided in the kit (Pierce LAL Chromogenic Endotoxin Quantitation Kit, Thermo Fisher Scientific). Escalating concentrations of peptides (up to 50 μM) were added with 2 ng/ml LPS (E. coli O111:B4, Sigma-Aldrich, USA) for 15 min at 37°C. To this content, an equal volume of LAL reagent was added and incubated for 15 min and then chromogenic substrate was added. The contents were incubated for another 10 min and 25% acetic acid was used to stop the reaction. The end color (yellow) formed due to […] of substrate was read at 405 nm. LL-37 was used as a control.

[9] = tested on: gram-negative bacterial strains and MDR bacterial strains; assay: Geometric mean of MICs over all tested bacterial strains and relative selective index; format: cell-based, Escherichia coli, Acinetobacter baumannii; details: larger values indicate greater cell selectivity
Method: The geometric means (GM) of MICs were assessed to evaluate the antibacterial activities of Pro9-3 series against tested bacterial strains.

[10] = tested on: sheep red blood cells; assay: Hemolysis of sheep red blood cells; format: cell-based
Method: as §3

[11] = E. coli KCTC 1682, 99% growth inhibition, 2 × 10^5 CFU/ml, 37°C, 16 h, A600
[12] = A. baumannii KCCM 40203, 99% growth inhibition, 2 × 10^5 CFU/ml, 37°C, 16 h, A600

Compound	Minimal inhibitory concentration (MIC) [1, 11]	Minimal inhibitory concentration (MIC) [2]	Minimal inhibitory concentration (MIC) [3]	Minimal inhibitory concentration (MIC) [4, 12]	Minimal inhibitory concentration (MIC) [5]	Minimal inhibitory concentration (MIC) [6]	Survival of RAW264.7 macrophage cells ([7]; 50 μM peptide)	LPS neutralization (LAL assay) [8]	Survival of RAW264.7 macrophage cells ([7]; 100 μM peptide)	Relative selective index (HC10/GM of the MIC) [9]	Hemolytic activity in sRBC (in words) ([10]; escalated dose of peptides, Fig. 1A)	Minimal inhibitory concentration (MIC) ([4]; KCCM 40203, 16 h)	HC10 (peptide concentration which induces 10% hemolysis) [10]	Minimal inhibitory concentration (MIC) ([1]; KCTC 1682, 16 h)
CC[C@@H](C)[C@@H](NC(=O)[C@@H](C)NC(=O)[C@@H](CC(C)C)NC(=O)[C@@H](Cc1c[nH]c2ccccc12)NC(=O)[C@@H](CC(C)C)NC(=O)[C@H](N)CCCCN)C(=O)N[C@H](Cc1c[nH]c2ccccc12)C(=O)N[C@H](CCCCN)C(=O)N[C@H](CCCCN)C(N)=O [Pro9-3D-K] (H-[dK][dL][dW][dL][dA][dI][dW][dK][dK]-NH2)	16 µM (≈ 19 µg/mL)	32 µM (≈ 37.9 µg/mL)	32 µM (≈ 37.9 µg/mL)	32 µM (≈ 37.9 µg/mL)	32 µM (≈ 37.9 µg/mL)	16 µM (≈ 19 µg/mL)	71%	–	–	–	–	–	–	–
LL-37	–	–	–	–	–	–	–	91%	–	–	–	–	–	–
CC[C@H](C)[C@H](NC(=O)[C@H](C)NC(=O)[C@H](CC(C)C)NC(=O)[C@H](Cc1c[nH]c2ccccc12)NC(=O)[C@H](CC(C)C)NC(=O)[C@@H](N)CCCCN)C(=O)N[C@@H](Cc1c[nH]c2ccccc12)C(=O)N[C@@H](CCCCN)C(=O)N[C@@H](CCCCN)C(N)=O [Pro9-3-K] (H-KLWLAIWKK-NH2)	64 µM (≈ 75.8 µg/mL)	64 µM (≈ 75.8 µg/mL)	64 µM (≈ 75.8 µg/mL)	64 µM (≈ 75.8 µg/mL)	64 µM (≈ 75.8 µg/mL)	64 µM (≈ 75.8 µg/mL)	–	–	100%	–	–	–	–	–
CC[C@H](C)[C@H](NC(=O)CN)C(=O)NCC(=O)N[C@@H](C)C(=O)N[C@H](C(=O)N[C@@H](CC(C)C)C(=O)N[C@@H](CCCCN)C(=O)N[C@H](C(=O)N[C@@H](CC(C)C)C(=O)N[C@H](C(=O)N[C@H](C(=O)NCC(=O)N[C@@H](CC(C)C)C(=O)N1CCC[C@H]1C(=O)N[C@@H](C)C(=O)N[C@@H](CC(C)C)C(=O)N[C@H](C(=O)N[C@@H](CO)C(=O)N[C@@H](Cc1c[nH]c2ccccc12)C(=O)N[C@H](C(=O)N[C@@H](CCCCN)C(=O)N[C@@H](CCCNC(=N)N)C(=O)N[C@@H](CCCCN)C(=O)N[C@@H](CCCNC(=N)N)C(=O)N[C@@H](CCC(N)=O)C(=O)N[C@@H](CCC(N)=O)C(N)=O)[C@@H](C)CC)[C@@H](C)CC)[C@@H](C)O)[C@@H](C)O)C(C)C)C(C)C [Melittin, reference compound]	–	16 µM (≈ 45.5 µg/mL)	8 µM (≈ 22.8 µg/mL)	8 µM (≈ 22.8 µg/mL)	8 µM (≈ 22.8 µg/mL)	32 µM (≈ 91.1 µg/mL)	–	–	–	0.06	severe cytotoxicity even at low concentration	–	–	–
CC[C@@H](C)[C@@H](NC(=O)[C@@H](C)NC(=O)[C@@H](CC(C)C)NC(=O)[C@@H](Cc1c[nH]c2ccccc12)NC(=O)[C@@H](CC(C)C)NC(=O)[C@H](N)CCCNC(=N)N)C(=O)N[C@H](Cc1c[nH]c2ccccc12)C(=O)N[C@H](CCCNC(=N)N)C(=O)N[C@H](CCCNC(=N)N)C(N)=O [Pro9-3D] (H-[dR][dL][dW][dL][dA][dI][dW][dR][dR]-NH2)	8 µM (≈ 10.1 µg/mL)	8 µM (≈ 10.1 µg/mL)	8 µM (≈ 10.1 µg/mL)	–	8 µM (≈ 10.1 µg/mL)	4 µM (≈ 5.07 µg/mL)	40%	–	–	–	–	4 µM (≈ 5.07 µg/mL)	200 µM	–
CC[C@H](C)[C@H](NC(=O)[C@H](C)NC(=O)[C@H](CC(C)C)NC(=O)[C@H](Cc1c[nH]c2ccccc12)NC(=O)[C@H](CC(C)C)NC(=O)[C@@H](N)CCCNC(=N)N)C(=O)N[C@@H](Cc1c[nH]c2ccccc12)C(=O)N[C@@H](CCCNC(=N)N)C(=O)N[C@@H](CCCNC(=N)N)C(N)=O [Pro9-3] (H-RLWLAIWRR-NH2)	–	16 µM (≈ 20.3 µg/mL)	16 µM (≈ 20.3 µg/mL)	–	16 µM (≈ 20.3 µg/mL)	32 µM (≈ 40.6 µg/mL)	–	–	100%	–	–	16 µM (≈ 20.3 µg/mL)	200 µM	16 µM (≈ 20.3 µg/mL)
